What was measured:
MCF7 = assay: Inhibition of MCF-7 cancer cell proliferation; type: functional, cell-based; details: Homo sapiens
Estrogen receptor = target: T1, Estrogen receptor (Homo sapiens, UniProt P03372)
T1 sequence (P03372 whole entry): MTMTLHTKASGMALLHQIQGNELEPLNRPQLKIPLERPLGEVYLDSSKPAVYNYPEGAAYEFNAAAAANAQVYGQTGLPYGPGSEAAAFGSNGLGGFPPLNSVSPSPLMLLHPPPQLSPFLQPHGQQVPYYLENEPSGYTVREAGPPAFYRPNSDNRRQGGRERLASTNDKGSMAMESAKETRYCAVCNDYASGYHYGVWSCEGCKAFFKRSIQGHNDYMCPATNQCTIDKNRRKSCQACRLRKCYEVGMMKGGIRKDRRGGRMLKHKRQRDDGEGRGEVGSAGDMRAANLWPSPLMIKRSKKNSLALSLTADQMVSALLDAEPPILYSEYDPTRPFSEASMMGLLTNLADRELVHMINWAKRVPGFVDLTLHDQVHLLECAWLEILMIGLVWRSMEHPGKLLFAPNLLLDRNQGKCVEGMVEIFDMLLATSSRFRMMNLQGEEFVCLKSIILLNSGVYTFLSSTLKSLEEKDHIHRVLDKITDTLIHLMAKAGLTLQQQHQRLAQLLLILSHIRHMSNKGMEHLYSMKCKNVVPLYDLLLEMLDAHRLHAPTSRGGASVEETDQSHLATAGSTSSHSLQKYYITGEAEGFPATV
Description: Binding affinity for human estrogen receptor alpha

Estrogen receptor beta = Estrogen receptor beta (Homo sapiens, UniProt Q92731)
Chain of Estrogen receptor beta (Q92731 whole entry): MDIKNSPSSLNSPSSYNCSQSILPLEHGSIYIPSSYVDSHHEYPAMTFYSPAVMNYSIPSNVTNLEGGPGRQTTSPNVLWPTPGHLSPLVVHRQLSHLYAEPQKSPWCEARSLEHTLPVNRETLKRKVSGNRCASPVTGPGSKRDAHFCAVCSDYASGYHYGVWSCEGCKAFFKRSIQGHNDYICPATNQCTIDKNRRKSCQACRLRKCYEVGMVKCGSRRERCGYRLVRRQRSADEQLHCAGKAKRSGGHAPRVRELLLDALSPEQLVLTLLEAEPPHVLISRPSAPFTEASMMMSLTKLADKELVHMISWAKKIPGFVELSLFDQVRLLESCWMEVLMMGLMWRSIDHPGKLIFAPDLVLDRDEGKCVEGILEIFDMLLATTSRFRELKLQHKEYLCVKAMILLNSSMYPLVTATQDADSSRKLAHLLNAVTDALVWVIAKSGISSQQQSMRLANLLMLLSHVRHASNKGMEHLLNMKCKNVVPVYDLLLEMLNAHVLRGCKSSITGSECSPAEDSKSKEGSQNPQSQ
Description: Binding affinity for human estrogen receptor beta

SMILES	IC50 (MCF7)	IC50 (Estrogen receptor)	IC50 (Estrogen receptor beta)
CCN1CCN(c2ccc([C@@H]3Oc4ccc(O)cc4S[C@@H]3c3ccc(O)cc3)cc2)CC1	1.4 nM	1 nM	27 nM
CN1CCCN(c2ccc([C@@H]3Oc4ccc(O)cc4S[C@@H]3c3ccc(O)cc3)cc2)CC1	29 nM	3.6 nM	365 nM
CN1CCN(c2ccc([C@@H]3Oc4ccc(O)cc4S[C@@H]3c3ccc(O)cc3)cc2)CC1	3.4 nM	1 nM	59 nM
Oc1ccc([C@H]2Sc3cc(O)ccc3O[C@H]2CCCN2CCCCC2)cc1	1.2 nM	0.7 nM	27 nM
Oc1ccc([C@H]2Sc3cc(O)ccc3O[C@H]2c2ccc(COCCN3CCCCC3)cc2)cc1	14.6 nM	2.3 nM	259 nM
Oc1ccc([C@H]2Sc3cc(O)ccc3O[C@H]2c2ccc(CCCN3CCCCC3)cc2)cc1	6.7 nM	1.4 nM	186 nM
Oc1ccc([C@H]2Sc3cc(O)ccc3O[C@H]2c2ccc(C3CCNCC3)cc2)cc1	1.9 nM	1.7 nM	115 nM
Oc1ccc([C@H]2Sc3cc(O)ccc3O[C@H]2c2ccc(N3CCNCC3)cc2)cc1	2.8 nM	4.4 nM	186 nM
Oc1ccc([C@H]2Sc3cc(O)ccc3O[C@H]2c2ccc(C3=CCNCC3)cc2)cc1	0.9 nM	1.4 nM	31 nM
Oc1ccc([C@H]2Sc3cc(O)ccc3O[C@H]2c2ccc(CN3CCCCC3)cc2)cc1		155 nM	4370 nM
Oc1ccc([C@H]2Sc3cc(O)ccc3O[C@H]2c2ccc(N3CCCNCC3)cc2)cc1	28 nM	3.6 nM	161 nM

Reference: ChEMBL document CHEMBL1148423, “Estrogen receptor ligands. Part 5: The SAR of dihydrobenzoxathiins containing modified basic side chains” (Bioorg Med Chem Lett, 2004)
